{
  "source": "patent US6562244B1",
  "about": "“Method and apparatus for disinfecting drainage” (Ebara Corporation, priority 1998, dated 2003)",
  "key": {"coliform organisms [1]": {"system": "coliform organisms", "assay": "Sterilization test of treated drainage from marine product processing (Example 2)", "assay_type": "cell-based", "conditions": "for Coliform organism count: marine product processing drainage (initial 320000 CFU/mL)", "procedure": "Drainage from the marine product processing industry was subjected to coagulation, pressurization, floating, and separation. Then, the drainage was further treated by an activated sludge process. The resulting drainage was used as water to be treated. A sterilization test of this water to be treated was conducted, with the concentration of a disinfectant being varied. [table]"}, "coliform organisms [2]": {"system": "coliform organisms", "assay": "Sterilization test of coliform organisms in treated sewage (Example 1)", "assay_type": "cell-based", "conditions": "for Coliform organism count: treated sewage (initial 12600 CFU/mL)", "procedure": "Treated sewage containing coliform organisms, as water to be treated, was subjected to a sterilization test. As a disinfectant, each of 1-bromo-3-chloro-5,5-dimethylhydantoin (hereinafter referred to as BCDMH) (Example 1) and sodium hypochlorite (Comparative Example 1) was used. The sterilization test of coliform organisms was conducted, with the concentration of the disinfectant being varied.\nIn the present specification, the proportion of the disinfectant added is expressed as active chlorine for each of the bromine-based disinfectant and the chlorine-based disinfectant, and is expressed as “mg/L as Cl” calculated as the active chlorine concentration. For example, when 1 g of BCDMH is added to 1 liter of drainage, its concentration is 540 mg/L as Cl."}, "coliform organisms [3]": {"system": "coliform organisms", "assay": "Disinfection of wet-weather sewage by the system of FIGS. 1 to 3 (Example 3), coliform organism count", "assay_type": "cell-based", "procedure": "Examples of the present invention will now be described, but the invention is not restricted thereby. Drainage was treated by the system show in FIGS. 1 to 3. In all of RUN 1 to RUN 4, the amount of the disinfectant being 0 (zero) corresponds to the incoming water quality of wet-weather sewage which has flowed into rainwater removal facilities."}, "aquatic organisms": {"system": "aquatic organisms", "conditions": "calculated as active chlorine (Cl2); aquatic organisms in public waters; cited from earlier work"}, "[4]": {"conditions": "disinfectant added 2.0 mg/L as Cl"}},
  "data": [
    {"smiles": "OCl", "note": "[Sodium hypochlorite, sodium hypochlorite, reference compound]", "values": [
      {"measurement": "Coliform organism count", "setting": "coliform organisms [1]; disinfectant added 6 mg/L as C1", "result": 135000, "unit": "CFU/mL"},
      {"measurement": "Coliform organism count", "setting": "coliform organisms [1]; disinfectant added 8 mg/L as C1", "result": 1900, "unit": "CFU/mL"},
      {"measurement": "Coliform organism count", "setting": "coliform organisms [1]; disinfectant added 10 mg/L as C1", "result": 900, "unit": "CFU/mL"},
      {"measurement": "Coliform organism count", "setting": "coliform organisms [1]; disinfectant added 12 mg/L as C1", "result": "Not detected"},
      {"measurement": "Coliform organism count", "setting": "coliform organisms [2]; [4]", "result": 11800, "unit": "CFU/mL"},
      {"measurement": "Coliform organism count", "setting": "coliform organisms [2]; disinfectant added 2.5 mg/L as Cl", "result": 2800, "unit": "CFU/mL"},
      {"measurement": "Coliform organism count", "setting": "coliform organisms [2]; disinfectant added 3.0 mg/L as Cl", "result": 300, "unit": "CFU/mL"},
      {"measurement": "Coliform organism count", "setting": "coliform organisms [2]; disinfectant added 3.5 mg/L as Cl", "result": "Not detected"},
      {"measurement": "reaction time to show sufficient effect", "setting": "coliform organisms [2]; treated sewage, Example 1", "result": "more than 5 minute"},
      {"measurement": "Coliform organism count", "setting": "coliform organisms [3]; RUN 4, sewage 250 m^3/h (incoming 46 × 10^3), amount added 30 mg/l as chlorine (Cl2)", "result": "19 × 10^3 CFU/ml"},
      {"measurement": "Coliform organism count", "setting": "coliform organisms [3]; RUN 4, sewage 250 m^3/h (incoming 46 × 10^3), amount added 60 mg/l as chlorine (Cl2)", "result": "> 3,000 CFU/ml"},
      {"measurement": "Coliform organism count", "setting": "coliform organisms [3]; RUN 4, sewage 250 m^3/h (incoming 46 × 10^3), amount added 60 mg/l as chlorine (Cl2), listed as B", "result": "41 × 10^2 CFU/ml"}
    ]},
    {"smiles": "CC1(C)C(=O)N(Cl)C(=O)N1Br", "note": "[BCDMH, 1-bromo-3-chloro-5,5-dimethylhydantoin]", "values": [
      {"measurement": "Coliform organism count", "setting": "coliform organisms [1]; disinfectant added 2.0 mg/L as C1", "result": 52000, "unit": "CFU/mL"},
      {"measurement": "Coliform organism count", "setting": "coliform organisms [1]; disinfectant added 3.0 mg/L as C1", "result": 1200, "unit": "CFU/mL"},
      {"measurement": "Coliform organism count", "setting": "coliform organisms [1]; disinfectant added 3.5 mg/L as C1", "result": "Not detected"},
      {"measurement": "concentration exhibiting germicidal effect relative to the concentration of sodium hypochlorite", "setting": "coliform organisms [1]; marine product processing drainage, Example 2", "result": "⅓"},
      {"measurement": "Coliform organism count", "setting": "coliform organisms [2]; disinfectant added 0.5 mg/L as Cl", "result": 10800, "unit": "CFU/mL"},
      {"measurement": "Coliform organism count", "setting": "coliform organisms [2]; disinfectant added 1.5 mg/L as Cl", "result": 70, "unit": "CFU/mL"},
      {"measurement": "Coliform organism count", "setting": "coliform organisms [2]; [4]", "result": "Not detected"},
      {"measurement": "concentration exhibiting germicidal effect relative to the concentration of sodium hypochlorite", "setting": "coliform organisms [2]; treated sewage, Example 1", "result": "a half or less"},
      {"measurement": "reaction time to show sufficient effect", "setting": "coliform organisms [2]; treated sewage, Example 1", "result": 1, "unit": "min"},
      {"measurement": "LC50", "setting": "aquatic organisms", "result": 0.4, "unit": "µg/mL"},
      {"measurement": "Coliform organism count", "setting": "coliform organisms [3]; RUN 1, sewage 120 m^3/h (incoming 97 × 10^3), amount added 6.0 mg/l as chlorine (Cl2)", "result": "83 × 10^2 CFU/ml"},
      {"measurement": "Coliform organism count", "setting": "coliform organisms [3]; RUN 1, sewage 120 m^3/h (incoming 97 × 10^3), amount added 12.0 mg/l as chlorine (Cl2)", "result": "less than 3,000 CFU/ml"},
      {"measurement": "Coliform organism count", "setting": "coliform organisms [3]; RUN 2, sewage 250 m^3/h (incoming 68 × 10^3), amount added 5.0 mg/l as chlorine (Cl2)", "result": "less than 3,000 CFU/ml"},
      {"measurement": "Coliform organism count", "setting": "coliform organisms [3]; RUN 2, sewage 250 m^3/h (incoming 68 × 10^3), amount added 5.0 mg/l as chlorine (Cl2), listed as A", "result": "18 × 10^2 CFU/ml"},
      {"measurement": "Coliform organism count", "setting": "coliform organisms [3]; RUN 2, sewage 250 m^3/h (incoming 68 × 10^3), amount added 10.0 mg/l as chlorine (Cl2)", "result": "20 or less CFU/ml"},
      {"measurement": "Coliform organism count", "setting": "coliform organisms [3]; RUN 3, sewage 530 m^3/h (incoming 39 × 10^3), amount added 3.0 mg/l as chlorine (Cl2)", "result": "28 × 10^2 CFU/ml"},
      {"measurement": "duration of contact with combined sewer overflow for appropriate disinfection", "setting": "coliform organisms [3]; RUN 3, sewage 530 m^3/hour, amount added 3 to 4.5 mg/l", "result": "about 50 seconds"}
    ]}
  ]
}
